Experimental data taken from US10907159B2, “Methods of treating cancer by inhibition of DNA repair proteins using antisense based therapies” (SARISSA INC., priority 2015, dated 2021).
Entries after “also recorded” stand apart in the source; their conditions may differ.

How the values were obtained:
Assay type in all cases: cell-based, human
A549b cells = experiment: Proliferation of A549b cells after OLIGO/siRNA transfection (cell counting)
Protocol: Cultured cell lines were maintained in minimum essential medium a with nucleosides plus 10% fetal bovine serum and penicillin (50 units/mL)/streptomycin (50 mg/L) (growth medium). Cultures were incubated in a humidified atmosphere of 5% CO2 at 37° C. Cultured cell lines were maintained and cytotoxicity assays conducted as described previously (3). Rapidly proliferating cells were utilized for establishing cultures of experimental cells, which were allowed to plate overnight in 25-cm^2 flasks prior to manipulation. An established cell line of non-small-cell lung carcinoma (NSCLC), A549b, which was propagated by serial dilution from a single cell of an A549 parent cell line, was used for the establishment of antisense activity of oligonucleotides. This cell line proliferates with a mean generation time of approximately 20 hours, and is capable of forming tumours in immunodeficient mice with a take rate of greater than 90%. Therefore, this cell line is a good model system that can be used in both in vitro and in vivo experiments to test the activity of OLIGOs.
OLIGOs were introduced into cells with the use of Lipofectamine 2000 (LFA2K) (Invitrogen, Burlington, Ontario, Canada). OLIGOs were mixed with LFA2K at a ratio of 0.2 μg/ml per 10 nM OLIGO. The mixture was prepared at 11× the final concentration to which cells were exposed, so that 200 μL was added to 2 mL of medium in which cells were plated. As controls, cells were exposed to medium alone (no treatment), LFA2K alone at concentrations equivalent to those used in combination with OLIGOs (in some experiments only the maximum LFA2K concentration was used as a control), or OLIGO having no complementarity with any human mRNA. The OLIGO/LFA2K mixtures were then incubated at room temperature for 20 minutes, according to instructions supplied with the LFA2K, followed by addition of the OLIGOs to the cell medium. The OLIGO/LFA2K mix was then incubated (37° C.) on the cells for 4 hours, after which a second volume of medium was added. Cells were then incubated for 20 hours. Following this incubation, the OLIGO-containing medium was replaced with drug-free medium (i.e. medium without OLIGOs) and the cells were incubated for an additional 4 days. Following the 4-day incubation, the proliferation of the treated cells (fold-increase in cell number) was calculated as a percentage of that of control cells. Cell numbers were enumerated on an electronic particle counter (Beckman Coulter, Mississauga, ON). For the purpose of determining the anti-proliferative effect of antisense OLIGOs, the proliferation of cells treated with antisense OLIGOs was calculated as a percent of that of cells treated with an equivalent concentration of non-complementary control OLIGO (in this case OLIGO 32) mixed with an equivalent amount of LFA2K.
OLIGO-containing medium was removed and replaced with fresh medium. Cells were incubated for 4 days, at which time cell number was counted. Proliferation was calculated as a percent of non-targeting OLIGO-treated controls.
Cells were incubated for 4 days, at which time cell number was counted. Proliferation was calculated as a percent of controls.

TS mRNA = experiment: RT-qPCR of TS mRNA in A549 cells after OLIGO transfection; details: 20 nM OLIGO, 24 hours post-transfection; FIG. 16
Protocol: Briefly, A549 cells seeded at a density of 2.0×10^5 per flask were transfected with 20 nM of OLIGO specific for each target or control OLIGO using Lipofectamine 2000 as the transfection reagent. Twenty four hours post-transfection mRNA was extracted and reverse transcribed into cDNA. RT-qPCR was performed for target mRNA levels using TaqMan reagents according to established protocols.

[1] = test system: HN-5a and HN-5a/carbo-15a head and neck squamous carcinoma cells; experiment: Cisplatin sensitivity after ASO transfection (cell counting, colony forming); details: FIG. 51
Protocol: HN-5a cells are parental, cisplatin-sensitive human head and neck squamous carcinoma cells, and HN-5a/carbo-10a and HN-5a/carbo-15a cells are cisplatin-resistant lines derived from HN-5a cells (Ferguson et al., Drug Metab. Dispos. 27:1399-1405, 1999). Cells were exposed to cisplatin and effects on proliferation were assessed 72 h after drug treatment. HN-5a cells (b) and HN-5a/carbo-15a cells (c) were transfected with control (black circles) or BRCA2 (white circles) ASO, treated with varying concentrations of cisplatin and then counted 96 h post-transfection. HN-5a cells (d) and […] cells (e) were transfected with control or BRCA2 ASO, treated with different concentrations of cisplatin for 6 h, and then re-plated at a density of 500 cells per well to determine colony forming ability. *Different from cells treated with control ASO using a Student's t-test (p<0.05).

CAPAN-1 cells = experiment: Cell proliferation assay, ASO and/or drug (cell counting); details: CAPAN-1 with mutated, non-functional BRCA2; FIG. 52
Protocol: A: BRCA2-wild type SKOV-3 cells (black bars), […] MCF-7 cells (white bars), and BRCA2-mutated CAPAN-1 cells (grey bars) were treated simultaneously but separately with BRCA2 ASO (20 nM). Due to differing growth medium requirements and to avoid fluorescent label-induced changes in drug sensitivity, cells were not co-cultured. They were treated independently, at the same time with the same materials. Ninety-six hours post-transfection, cells were counted and proliferation determined (% of proliferation after control ASO treatment).
C: SKOV-3, MCF-7 and CAPAN-1 cells were treated with two different concentrations of olaparib for 96 hours. After drug treatment they were counted and proliferation was determined as a percent of that of vehicle-treated cells.
Four hours post-transfection, cells were seeded into 6 well dishes in appropriate experimental groups. Twenty-four hours post transfection, cells were treated with olaparib (Selleckchem) at three concentrations. Ninety-six hours post transfection, cells were collected and counted (Coulter Particle Counter). Proliferation was determined based on initial cell density and calculated as a percentage of ASO+vehicle treated cells.

MDA-MB-231 cells = experiment: Cell proliferation assay, ASO transfection then drug (cell counting); details: FIG. 49
Protocol: Four hours post-transfection, cells were seeded into 6 well dishes in appropriate experimental groups. […] Ninety-six hours post transfection, cells were collected and counted (Coulter Particle Counter). Proliferation was determined based on initial cell density and calculated as a percentage of ASO+vehicle treated cells.

5′-guaucuCTTGACGTuccuua-3′ (GUAUCUCTTGACGTUCCUUA; gapmer, lower-case wings modified, type not given here) [BR1]
anti-proliferative effect as single agent (A549b cells; A549/A549b cells, 4 h transfection, counted after 4 d, vs non-targeting control OLIGO): inhibited proliferation on its own; also recorded: greater inhibition as a single agent; also recorded: inhibit proliferation of human non-small cell lung cancer A549 cells in a concentration-dependent manner
inhibit proliferation of A549b cells (A549b cells; single agent, mixed with 0.2 μg/mL LFA2K, compared with control OLIGO 32, FIG. 1): over 50%
effect on TS mRNA level (TS mRNA): no significant effect on TS mRNA
effect on acquired cisplatin resistance [1]: reverses acquired cisplatin resistance
effect on antiproliferative activity of cisplatin (CAPAN-1 cells): no effect on the antiproliferative activity of cisplatin
effect on antiproliferative activity of cisplatin (MDA-MB-231 cells): enhances the antiproliferative activity of cisplatin
